Results reported in paper PMC11945475, “Nasal Administration of a Nanoemulsion Based on Methyl Ferulate and Eugenol Encapsulated in Chitosan Oleate: Uptake Studies in the Central Nervous System” (Pharmaceutics, 2025).

Assays:
[1] = rat, Fer 1 mg/kg i.v.; cited from earlier work
[2] = set-up: method as in PMID 33547615; details: rats, Fer at doses up to 40 mg/kg; cited from earlier work
[3] = Intravenous administration of Fer-Me to rats (bloodstream and CSF pharmacokinetics); type: in vivo, rat
Experimental: Charles River laboratories, Calco, Italy) bloodstream and CSF. […] The sample size (4 rats/group) has been chosen based on our previous studies. The experimental procedures were approved by the Italian Ministry of Health and were performed in accordance with the European Communities Council Directive of September 2010 (2010/63/EU). According to the ARRIVE guidelines, all possible efforts were made to minimize animal pain and discomfort and to reduce the number of experimental subjects. Fer-Me solution (2.5 mg/mL final concentration, 15% v/v EtOH content) was prepared by first dissolving Fer-Me in EtOH and then adding this latter solution to a saline solution (0.9% NaCl). […] The aqueous phase was then subjected to a double extraction with 1 mL of H2O-saturated ethyl acetate. […] Data were acquired and processed through CLASS-VP Software; version 7.2.1 (Shimadzu Italia, Milan, Italy). The mobile phase was eluted under isocratic conditions (0.8 mL/min) and was constituted by a mixture of acetic acid in H2O (0.4% v/v) and MeOH, whose ratio was 40:60 (v/v). The UV-Vis detector was set at 320 nm for the detection of Fer-Me, its hydrolysis product Fer, and Caf-Me, which was utilized as an internal standard during blood sample extraction. […] The average recoveries were approximately 40% for Fer and 58% for Fer-Me. For this reason, the concentrations of these compounds were determined by their peak area ratio with respect to the internal standard (Caf-Me). […] Fer-Me in vivo half-life (t1/2) in the rats' bloodstream was determined using nonlinear regression (exponential decay) of concentration values quantified at appropriate time intervals after infusion, further validated by applying linear regression to the semi-logarithmic plot.

[4] = rat, after Fer-Me 10 mg/kg i.v. infusion

COc1cc(/C=C/C(=O)O)ccc1O [Fer, ferulic acid]
AUC in CSF [1]: 3.3 ± 0.3 µg·min/mL | AUC in the bloodstream [1]: 244 ± 13 µg·min/mL | Cmax in CSF [1]: 80 ± 10 ng/mL | Tmax in CSF [1]: 1 h | side effects [2]: no side effects | Fer AUC as percentage of the Fer-Me AUC value ([3]; rat bloodstream, after Fer-Me 10 mg/kg i.v.): 1.3% | Fer concentration in the bloodstream ([3]; rat, about 20 min after end of Fer-Me 10 mg/kg i.v. infusion): 0.205 ± 0.050 µg/mL | AUC of hydrolysis product Fer in the bloodstream [3, 4]: 8.4 ± 0.8 µg·min/mL | C0 of hydrolysis product Fer in the bloodstream [3, 4]: 209 ± 1 ng/mL | time within which Fer blood concentration decreased to zero ([3]; rat, from the end of Fer-Me 10 mg/kg i.v. infusion): ≤ 60 min
